Measurements taken from patent US10206399B2, “Herbicidal composition comprising uracil compound as active ingredient” (Dongbu Farm Hannong Co., Ltd., priority 2012, dated 2019).
Where two headings read alike, the source gives them in different places.

Tests used:
Echinochloa crus = settings: for plant mortality, measured value: Echinochloa crus
Source text: (§1) X is % damage by uracil compound (a) of formula 1 at the rate of application of p kg/ha; Y is % damage by conventional herbicidal compound (b) at the rate of application of q kg/ha; and E is the expected damage caused by compounds (a) and (b) at a rate of application of p and q kg/ha.
(§2) The expected activity for a given combination of two herbicides can be calculated using equation 1 above.

Xanthium spinosum = assay: whole plant or invertebrate; settings: for pest or weed control at 25 g/ha: read-out: Data (measured value) Xanthium spinosum, 25 g/ha
Source text: as §1, §2

Abutilon theophrasti = assay: whole plant or invertebrate; settings: for pest or weed control at 25 g/ha: read-out: Data (measured value) Abutilon theophrasti, 25 g/ha
Source text: as §1, §2

Aeschynomene indica = assay: whole plant or invertebrate; settings: for pest or weed control at 25 g/ha: read-out: Data (measured value) Aeschynomene indica, 25 g/ha
Source text: as §1, §2

Digitaria sanguinalis = settings: for plant mortality, measured value: Digitaria sanguinalis
Source text: as §1, §2

[1] = read-out: Data (measured value) Xanthium spinosum, 50 g/ha
[2] = read-out: Data (measured value) Xanthium spinosum, 100 g/ha
[3] = read-out: Data (measured value) Abutilon theophrasti, 50 g/ha
[4] = read-out: Data (measured value) Abutilon theophrasti, 100 g/ha
[5] = read-out: Data (measured value) Aeschynomene indica, 50 g/ha
[6] = read-out: Data (measured value) Aeschynomene indica, 100 g/ha
[7] = read-out: plant mortality, measured value, 375 g/ha
[8] = read-out: plant mortality, measured value, 750 g/ha
[9] = read-out: plant mortality, measured value, 1500 g/ha
[10] = read-out: plant mortality, measured value, 50 g/ha
[11] = read-out: plant mortality, measured value, 100 g/ha
[12] = read-out: plant mortality, measured value, 200 g/ha

Compound: Nc1c(Cl)c(Cl)nc(C(=O)O)c1Cl [Picloram]
- Data (measured value) Echinochloa crus (Echinochloa crus; 25 g/ha): 0
- Data (measured value) Echinochloa crus (Echinochloa crus; 50 g/ha): 0
- Data (measured value) Echinochloa crus (Echinochloa crus; 100 g/ha): 0
- pest or weed control at 25 g/ha (Xanthium spinosum): 9%
- pest or weed control at 50 g/ha (Xanthium spinosum; [1]): 26%
- pest or weed control at 100 g/ha (Xanthium spinosum; [2]): 56%
- pest or weed control at 25 g/ha (Abutilon theophrasti): 9%
- pest or weed control at 50 g/ha (Abutilon theophrasti; [3]): 28%
- pest or weed control at 100 g/ha (Abutilon theophrasti; [4]): 65%
- pest or weed control at 25 g/ha (Aeschynomene indica): 9%
- pest or weed control at 50 g/ha (Aeschynomene indica; [5]): 21%
- pest or weed control at 100 g/ha (Aeschynomene indica; [6]): 52%
- Data (measured value) Digitaria sanguinalis (Digitaria sanguinalis; 25 g/ha): 0
- Data (measured value) Digitaria sanguinalis (Digitaria sanguinalis; 50 g/ha): 0
- Data (measured value) Digitaria sanguinalis (Digitaria sanguinalis; 100 g/ha): 0

Compound: CCc1cc(C)cc(CC)c1-c1c(OC(=O)C(C)(C)C)n2n(c1=O)CCOCC2 [Pinoxaden]
- Data (measured value) Echinochloa crus (Echinochloa crus; 6.25 g/ha): 10
- Data (measured value) Echinochloa crus (Echinochloa crus; 12.5 g/ha): 29
- Data (measured value) Echinochloa crus (Echinochloa crus; 25 g/ha): 63
- pest or weed control at 6.25 g/ha (Xanthium spinosum; read-out: Data (measured value) Xanthium spinosum, 6.25 g/ha): 0%
- pest or weed control at 12.5 g/ha (Xanthium spinosum; read-out: Data (measured value) Xanthium spinosum, 12.5 g/ha): 0%
- pest or weed control at 25 g/ha (Xanthium spinosum): 0%
- pest or weed control at 6.25 g/ha (Abutilon theophrasti; read-out: Data (measured value) Abutilon theophrasti, 6.25 g/ha): 0%
- pest or weed control at 12.5 g/ha (Abutilon theophrasti; read-out: Data (measured value) Abutilon theophrasti, 12.5 g/ha): 0%
- pest or weed control at 25 g/ha (Abutilon theophrasti): 0%
- pest or weed control at 6.25 g/ha (Aeschynomene indica; read-out: Data (measured value) Aeschynomene indica, 6.25 g/ha): 0%
- pest or weed control at 12.5 g/ha (Aeschynomene indica; read-out: Data (measured value) Aeschynomene indica, 12.5 g/ha): 0%
- pest or weed control at 25 g/ha (Aeschynomene indica): 0%
- Data (measured value) Digitaria sanguinalis (Digitaria sanguinalis; 6.25 g/ha): 12
- Data (measured value) Digitaria sanguinalis (Digitaria sanguinalis; 12.5 g/ha): 26
- Data (measured value) Digitaria sanguinalis (Digitaria sanguinalis; 25 g/ha): 57

Compound: CCC(=O)Nc1ccc(Cl)c(Cl)c1 [Propanil]
- plant mortality, measured value (Echinochloa crus; 375 g/ha): 11
- plant mortality, measured value (Echinochloa crus; 750 g/ha): 21
- plant mortality, measured value (Echinochloa crus; 1500 g/ha): 46
- pest or weed control at 375 g/ha (Xanthium spinosum; [7]): 10%
- pest or weed control at 750 g/ha (Xanthium spinosum; [8]): 24%
- pest or weed control at 1500 g/ha (Xanthium spinosum; [9]): 58%
- pest or weed control at 375 g/ha (Abutilon theophrasti; [7]): 10%
- pest or weed control at 750 g/ha (Abutilon theophrasti; [8]): 23%
- pest or weed control at 1500 g/ha (Abutilon theophrasti; [9]): 56%
- pest or weed control at 375 g/ha (Aeschynomene indica; [7]): 10%
- pest or weed control at 750 g/ha (Aeschynomene indica; [8]): 27%
- pest or weed control at 1500 g/ha (Aeschynomene indica; [9]): 56%
- plant mortality, measured value (Digitaria sanguinalis; 375 g/ha): 7
- plant mortality, measured value (Digitaria sanguinalis; 750 g/ha): 22
- plant mortality, measured value (Digitaria sanguinalis; 1500 g/ha): 45

Compound: O=C(O)c1c(Cl)ccc2cc(Cl)cnc12 [Quinclorac]
- plant mortality, measured value (Echinochloa crus; 50 g/ha): 13
- plant mortality, measured value (Echinochloa crus; 100 g/ha): 26
- plant mortality, measured value (Echinochloa crus; 200 g/ha): 55
- pest or weed control at 50 g/ha (Xanthium spinosum; [10]): 11%
- pest or weed control at 100 g/ha (Xanthium spinosum; [11]): 29%
- pest or weed control at 200 g/ha (Xanthium spinosum; [12]): 62%
- pest or weed control at 50 g/ha (Abutilon theophrasti; [10]): 9%
- pest or weed control at 100 g/ha (Abutilon theophrasti; [11]): 26%
- pest or weed control at 200 g/ha (Abutilon theophrasti; [12]): 57%
- pest or weed control at 50 g/ha (Aeschynomene indica; [10]): 10%
- pest or weed control at 100 g/ha (Aeschynomene indica; [11]): 27%
- pest or weed control at 200 g/ha (Aeschynomene indica; [12]): 57%
- plant mortality, measured value (Digitaria sanguinalis; 50 g/ha): 6
- plant mortality, measured value (Digitaria sanguinalis; 100 g/ha): 21
- plant mortality, measured value (Digitaria sanguinalis; 200 g/ha): 49

Compound: CCO/N=C(\CC)C1=C(O)CC(c2c(C)cc(C)cc2C)CC1=O (stereo not drawn) [Tralkoxydim]
- Data (measured value) Echinochloa crus (Echinochloa crus; 25 g/ha): 10
- Data (measured value) Echinochloa crus (Echinochloa crus; 50 g/ha): 24
- Data (measured value) Echinochloa crus (Echinochloa crus; 100 g/ha): 56
- pest or weed control at 25 g/ha (Xanthium spinosum): 0%
- pest or weed control at 50 g/ha (Xanthium spinosum; [1]): 0%
- pest or weed control at 100 g/ha (Xanthium spinosum; [2]): 0%
- pest or weed control at 25 g/ha (Abutilon theophrasti): 0%
- pest or weed control at 50 g/ha (Abutilon theophrasti; [3]): 0%
- pest or weed control at 100 g/ha (Abutilon theophrasti; [4]): 0%
- pest or weed control at 25 g/ha (Aeschynomene indica): 0%
- pest or weed control at 50 g/ha (Aeschynomene indica; [5]): 0%
- pest or weed control at 100 g/ha (Aeschynomene indica; [6]): 0%
- Data (measured value) Digitaria sanguinalis (Digitaria sanguinalis; 25 g/ha): 8
- Data (measured value) Digitaria sanguinalis (Digitaria sanguinalis; 50 g/ha): 21
- Data (measured value) Digitaria sanguinalis (Digitaria sanguinalis; 100 g/ha): 47
